Data taken from PubChem BioAssay (NCI).
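Where inhibition never reached the appropriate level, the endpoint shown equals the highest concentration tested. Otherwise, values were interpolated linearly from a five-concentration, 48-hour dose response in 96-well plates. The concentration for full growth arrest is given as TGI.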

What was measured:
Assay in all cases: inhibition of tumour cell growth, NCI panel, 48 h
A549 NSCLC = tested on: A549 NSCLC
CAKI-1 renal = tested on: CAKI-1 renal
CCRF-CEM leukemia = tested on: CCRF-CEM leukemia
HCT-116 colon = tested on: HCT-116 colon
HOP-92 NSCLC = tested on: HOP-92 NSCLC
LOX IMVI melanoma = tested on: LOX IMVI melanoma
NCI-H23 lung = tested on: NCI-H23 lung
OVCAR-8 ovarian = tested on: OVCAR-8 ovarian
SK-MEL-5 melanoma = tested on: SK-MEL-5 melanoma
SK-OV-3 ovarian = tested on: SK-OV-3 ovarian

Row | Compound | TGI (A549 NSCLC) [µM] | TGI (CAKI-1 renal) [µM] | TGI (CCRF-CEM leukemia) [µM] | TGI (HCT-116 colon) [µM] | TGI (HOP-92 NSCLC) [µM] | TGI (LOX IMVI melanoma) [µM] | TGI (NCI-H23 lung) [µM] | TGI (OVCAR-8 ovarian) [µM] | TGI (SK-MEL-5 melanoma) [µM] | TGI (SK-OV-3 ovarian) [µM]
1 | O=C1COc2ccc([N+](=O)[O-])cc2C(=O)C1 | > 10 | > 10 | > 10 | > 10 | > 10 | > 10 | > 10 | > 10 | > 10 | > 10
2 | O=C(OCc1ccccc1)C1(N2CN(C3(C(=O)OCc4ccccc4)CCCC3)CN(C3(C(=O)OCc4ccccc4)CCCC3)C2)CCCC1 | > 10 | > 10 | > 10 | > 10 | > 10 | > 10 | > 10 | > 10 | > 10 | > 10
3 | CCOC(=O)/C=C(/C(=O)OCC)n1cc(C)c(=O)n(Cc2cn(COCCOC(C)=O)nn2)c1=O | > 100 | 23.6 | 5.33 | > 53.3 | 28.8 | 47.8 | 26.3 | 32.7 | > 59.8 | > 100
4 | COc1cc(CC2c3cc(OC)c(OC)cc3CCN2C)c(Oc2cc3c(cc2OC)-c2c(O)c(OC)cc4c2C(C3)N(C)CC4)cc1OC (stereo not given) | > 100 | 68.4 | 42.8 | > 100 | 32.6 | 67.9 | 42.8 | 44.5 | 32.8 | > 100
5 | Cc1[nH]c2ccccc2c1C=Nc1ccc(N=Cc2c(C)[nH]c3ccccc23)cc1 | > 100 | > 100 | 47.6 | 38.2 | > 100 | 36.5 | > 100 | > 100 | 93.8 | > 100
6 | C=CCNC(=O)NC1=CSC2=NC(=O)C3(NN12)c1ccccc1-c1ccccc13 | > 10 | > 10 | > 10 | > 10 | > 10 | > 10 | > 10 | > 10 | > 10 | > 10
7 | Cc1cc(S(=O)(=O)O)c(NC(=O)C(=O)C2C=CCS2(=O)=O)cc1Cl (stereo not given) | > 100 | > 100 | > 100 | > 100 | > 100 | > 100 | > 100 | > 100 | > 100 | > 100
8 | Cc1ccc(C(C2C(=O)N(C)C(=O)N(C)C2=O)C(F)(F)C(=O)N(C)C)cc1 (stereo not given) | > 100 | > 100 | > 100 | > 100 | > 100 | > 100 | > 100 | > 100 | > 100 | > 100
9 | COC(=O)/C=C1\CCC(C)(C(=O)NS(=O)(=O)c2ccc(C)cc2)C1(C)C (stereo not given) | > 100 | > 100 | > 100 | > 100 | > 100 | > 100 | > 100 | > 100 | > 100 | > 100
10 | O=C1c2c(nc3ccccc3c2-c2ccccc2)CN1Nc1ccccn1 | > 100 | > 86.9 | > 100 | > 100 | > 79.4 | > 100 | > 100 | > 87.1 | > 100 | > 100
11 | C=C1C(=O)OCC2C(C(=O)O)=CC3C(C)C(C)=CC123 (stereo not given) | 77.1 | 62.6 | 42 | 35.5 | 25.5 | 27.9 | 25.7 | 73.5 | 27.3 | 79.5
12 | Cc1cccc(NC(=O)C(=O)C(C(=O)c2ccccc2F)C2OC(=O)c3ccccc32)c1Cl (stereo not given) | > 100 | > 100 | 83 | 45.3 | > 100 | 43.3 | 81.8 | 50.6 | > 100 | > 100
13 | C(=C\c1ccccc1)/C=N/c1nc2cc3sc(/N=C/C=C/c4ccccc4)nc3cc2s1 | > 100 | > 100 | > 100 | > 100 | > 100 | > 100 | > 100 | > 100 | > 100 | > 100
14 | [N-]=[N+]=NCc1cccc(Nc2cc(=O)[nH]c(=O)[nH]2)c1 | > 100 | > 100 | > 100 | > 100 | > 100 | > 100 | > 100 | > 100 | > 100 | > 100
15 | O=S1(=O)c2ccccc2C(=NO)c2ccccc21 | > 100 | > 100 | > 100 | > 100 | > 100 | > 100 | > 100 | > 100 | > 100 | > 100
16 | C=C(C)C(=O)[C@@]12C(=O)[C@@H](C)CC[C@H]1[C@H](C)C[C@@H]2C=C(C)C | > 100 | 99.5 | > 100 | 42.6 | > 100 | 37 | 36.3 | > 100 | 45.1 | > 100
17 | COc1cccc(/C=N/[N-]C(N)=O)c1[O-].[Ni+2].[OH3+].c1cnc2c(c1)ccc1cccnc12 | > 100 | > 100 | > 100 | > 100 | > 100 | > 100 | > 100 | > 100 | > 100 | > 100
18 | COc1cccc(N(CN2CC=CC2=O)C(C)=O)c1 | > 100 | > 100 | > 100 | > 100 | > 100 | > 100 | > 100 | > 100 | > 100 | > 100
19 | CN(C)Cc1cc(O)c(O)c(CN(C)C)c1 | > 100 | > 100 | 61.8 | > 100 | > 100 | > 100 | > 100 | > 100 | > 100 | > 100
20 | Cc1cc(-c2nc3ccccc3s2)ccc1NC(=O)[C@H](C)N | 27.3 | 24 | 24.1 | 23.4 | 35.5 | > 100 | 33.9 | 37.4 | 26.1 | 28.5
